Measurements reported in patent publication US6620967B1, “Ketosis-treating agent” (priority 1999, dated 2003).

Test system: Wistar male rats subjected to ketosis under starvation for 48 hours
Assay: Effects at oral administration in rats subjected to ketosis under starvation
Assay type: in vivo, rat
Conditions: oral (into the stomach), 1 or 2 mmol/kg-body weight, blood from tail vein up to 240 minutes after administration
Experimental: Wistar male rats of 6 to 8 week age were subjected to ketosis under starvation for 48 hours and then used for experiment. Each of glutamine, glutamic acid, valine, isoleucine and serine was dissolved in water for injection and administered into the stomach using a gastroconductor to give a dose of 1 or 2 mmol/kg-body weight. As controls, the same quantity of water for injection was similarly administered, or each of glucose and alanine was similarly administered to give a dose of 1 or 2 mmol/kg-body weight.
Before the administration, and 30, 60, 90, 120, 180 and 240 minutes after the administration, blood was collected from a tail vein and the concentration of glucose in blood and the concentration of 3-hydroxybutyric acid usually measured for diagnosis of ketosis were measured.
FIGS. 1 to 10 show changes of the concentrations of glucose and 3-hydroxybutyric acid in blood, which are expressed as rates of change from the values before the administration (FIG. 1: water for injection, FIG. 2: 1 mmol/kg of glucose, FIG. 3: 1 mmol/kg of alanine, FIG. 4: 2 mmol/kg of alanine, FIG. 5: 1 mmol/kg of glutamine, FIG. 6: 1 mmol/kg of glutamic acid, FIG. 7: 1 mmol/kg of valine, FIG. 8: 2 mmol/kg of valine, FIG. 9: 2 mmol/kg of isoleucine, FIG. 10: 2 mmol/kg of serine). In the figures, the symbols “-∘-” and “-▴-” correspond to the rates of change of 3-hydroxybutyric acid and glucose, respectively.
Furthermore, as shown in the figures, the effect on reduction of ketone bodies disappeared within about 4 hours when glucose was used. On the other hand, when glutamine, glutamic acid, valine or isoleucine was used, the period of effecting the reduction of the concentration of ketone bodies was expected to be 24 hours or more, and therefore, they were effective as ketosis-treating agents having long duration of the effect.

Compound | concentration of glucose in blood, change from value before administration | concentration of ketone bodies (3-hydroxybutyric acid) in blood, change from value before administration
CC[C@H](C)[C@H](N)C(=O)O [isoleucine] | without largely increasing the concentration of glucose in blood | reduced the concentration of ketone bodies
CC(C)[C@H](N)C(=O)O [valine] | without largely increasing the concentration of glucose in blood | reduced the concentration of ketone bodies
N[C@@H](CO)C(=O)O [serine] | without largely increasing the concentration of glucose in blood | reduced the concentration of ketone bodies
